Reference: patent US11078216B2, “Bisaryl amides as NRF2 activators” (GLAXOSMITHKLINE INTELLECTUAL PROPERTY DEVELOPMENT LIMITED, priority 2016, dated 2021)
Where a name gives a salt, the structure may show the parent alone.

Test system: NRF2 (NQO1 activity as marker for NRF2 activation), BEAS-2B cells
Assay: BEAS-2B NQO1 MTT Assay
Type: cell-based
Details: Homo sapiens, EC50 of NQO1 specific activity induction, 48 hours incubation, read-out: EC50
Procedure, shortened: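 As a marker of NRF2 activation, NQO1 specific activity was read from the rate of absorbance change at 570 nm in MTT cocktail over 30 minutes. Lysates came from BEAS-2B cells treated for 48 hours at 37° C, and EC50 was derived by 3-parameter fitting.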

Row | Structure (SMILES) | EC50 [nM]
1 | CCn1nnc2c(C)c([C@H](c3ccc(C)c(CN4C[C@@H](C)Cc5cc(C(F)(F)F)ccc5S4(=O)=O)c3)C(C)(C)C(=O)Nc3cccnc3)cc(OC)c21 [Example 66, (S)-3-(1-Ethyl-7-methoxy-4-methyl-1H-benzo[d][1,2,3]triazol-5-yl)-2,2-dimethyl-3-(4-methyl-3-(((S)-4-methyl-1,1-dioxido-7-(trifluoromethyl)-4,5-dihydrobenzo[f][1,2]thiazepin-2(3H)-yl)methyl)phenyl)-N-(pyridin-3-yl)propanamide] | 10 to 100
2 | CC[C@@H]1CN(Cc2cc([C@H](CC(=O)Nc3nn[nH]n3)c3ccc4c(nnn4CC)c3C)ccc2C)S(=O)(=O)c2cccnc2O1 [Example 67, (S)-3-(3-(((R)-4-Ethyl-1,1-dioxido-3,4-dihydro-2H-pyrido[2,3-b][1,4,5]oxathiazepin-2-yl)methyl)-4-methylphenyl)-3-(1-ethyl-4-methyl-1H-benzo[d][1,2,3]triazol-5-yl)-N-(2H-tetrazol-5-yl)propanamide] | 100 to 1000
3 | CC[C@@H]1CN(Cc2cc([C@@H](c3ccc4c(nnn4CC)c3C)C(C)(C)C(N)=O)ccc2C)S(=O)(=O)c2cccnc2O1 [Example 68, (S)-3-(3-(((R)-4-Ethyl-1,1-dioxido-3,4-dihydro-2H-pyrido[2,3-b][1,4,5]oxathiazepin-2-yl)methyl)-4-methylphenyl)-3-(1-ethyl-4-methyl-1H-benzo[d][1,2,3]triazol-5-yl)-2,2-dimethylpropanamide] | 1 to 10
4 | Cc1ccc(C(CC(=O)Nc2cccnc2)c2ccc(C#N)cc2C)cc1CN1CC(C)Cc2ccc(C(F)(F)F)cc2S1(=O)=O (stereo not drawn) [Example 70, 3-(4-Cyano-2-methylphenyl)-3-(4-methyl-3-((4-methyl-1,1-dioxido-8-(trifluoromethyl)-4,5-dihydrobenzo[f][1,2]thiazepin-2(3H)-yl)methyl)phenyl)-N-(pyridin-3-yl)propanamide] | 100 to 1000
5 | CC[C@H]1Cc2ccccc2S(=O)(=O)N(Cc2cc([C@@H](c3ccc4c(nnn4CC)c3C)C(C)(C)C(=O)Nc3ncns3)ccc2C)C1 [Example 71, (S)-3-(3-(((S)-4-Ethyl-1,1-dioxido-4,5-dihydrobenzo[f][1,2]thiazepin-2(3H)-yl)methyl)-4-methylphenyl)-3-(1-ethyl-4-methyl-1H-benzo[d][1,2,3]triazol-5-yl)-2,2-dimethyl-N-(1,2,4-thiadiazol-5-yl)propanamide] | 1 to 10
6 | CC[C@H]1Cc2ccccc2S(=O)(=O)N(Cc2cc([C@@H](c3ccc4c(nnn4CC)c3C)C(C)(C)C(=O)Nc3nnnn3-c3ccccc3)ccc2C)C1 [Example 72, (S)-3-(3-(((S)-4-Ethyl-1,1-dioxido-4,5-dihydrobenzo[f][1,2]thiazepin-2(3H)-yl)methyl)-4-methylphenyl)-3-(1-ethyl-4-methyl-1H-benzo[d][1,2,3]triazol-5-yl)-2,2-dimethyl-N-(1-phenyl-1H-tetrazol-5-yl)propanamide] | 10 to 100
7 | CC[C@H]1Cc2ccccc2S(=O)(=O)N(Cc2cc([C@@H](c3ccc4c(nnn4CC)c3C)C(C)(C)C(=O)Nc3nnnn3CC(C)=O)ccc2C)C1 [Example 73, (S)-3-(3-(((S)-4-Ethyl-1,1-dioxido-4,5-dihydrobenzo[f][1,2]thiazepin-2(3H)-yl)methyl)-4-methylphenyl)-3-(1-ethyl-4-methyl-1H-benzo[d][1,2,3]triazol-5-yl)-2,2-dimethyl-N-(1-(2-oxopropyl)-1H-tetrazol-5-yl)propanamide] | 10 to 100
8 | CC[C@H]1Cc2ccccc2S(=O)(=O)N(Cc2cc([C@@H](c3ccc4c(nnn4CC)c3C)C(C)(C)C(=O)Nc3nnnn3-c3ccccn3)ccc2C)C1 [Example 74, (S)-3-(3-(((S)-4-Ethyl-1,1-dioxido-4,5-dihydrobenzo[f][1,2]thiazepin-2(3H)-yl)methyl)-4-methylphenyl)-3-(1-ethyl-4-methyl-1H-benzo[d][1,2,3]triazol-5-yl)-2,2-dimethyl-N-(1-(pyridin-2-yl)-1H-tetrazol-5-yl)propanamide] | 1 to 10
9 | CC[C@H]1Cc2ccccc2S(=O)(=O)N(Cc2cc([C@@H](c3ccc4c(nnn4CC)c3C)C(C)(C)C(=O)Nc3nnnn3Cc3nccs3)ccc2C)C1 [Example 75, (S)-3-(3-(((S)-4-Ethyl-1,1-dioxido-4,5-dihydrobenzo[f][1,2]thiazepin-2(3H)-yl)methyl)-4-methylphenyl)-3-(1-ethyl-4-methyl-1H-benzo[d][1,2,3]triazol-5-yl)-2,2-dimethyl-N-(1-(thiazol-2-ylmethyl)-1H-tetrazol-5-yl)propanamide] | 1 to 10
10 | CC[C@H]1Cc2ccccc2S(=O)(=O)N(Cc2cc([C@@H](c3ccc4c(nnn4CC)c3C)C(C)(C)C(=O)Nc3nnnn3CC(=O)O)ccc2C)C1 [Example 76, 2-(5-((S)-3-(3-(((S)-4-Ethyl-1,1-dioxido-4,5-dihydrobenzo[f][1,2]thiazepin-2(3H)-yl)methyl)-4-methylphenyl)-3-(1-ethyl-4-methyl-1H-benzo[d][1,2,3]triazol-5-yl)-2,2-dimethylpropanamido)-1H-tetrazol-1-yl)acetic Acid] | 10 to 100
11 | CC[C@@H]1CN(Cc2cc([C@@H](c3ccc4c(nnn4CC)c3C)C(C)(C)NC(=O)c3nnn[nH]3)ccc2C)S(=O)(=O)c2ccccc2O1 [Example 77, N—((S)-1-(3-(((R)-4-Ethyl-1,1-dioxido-3,4-dihydro-2H-benzo[b][1,4,5]oxathiazepin-2-yl)methyl)-4-methylphenyl)-1-(1-ethyl-4-methyl-1H-benzo[d][1,2,3]triazol-5-yl)-2-methylpropan-2-yl)-1H-tetrazole-5-carboxamide, Trifluoroacetic Acid Salt] | 100 to 1000
12 | CC[C@H]1Cc2ccc(C(F)(F)F)cc2S(=O)(=O)N(Cc2cc([C@@H](c3ccc4c(nnn4CC)c3C)C(C)(C)NC(=O)Cc3nnn[nH]3)ccc2C)C1 [Example 78, N—((S)-1-(3-(((S)-4-Ethyl-1,1-dioxido-8-(trifluoromethyl)-4,5-dihydrobenzo[f][1,2]thiazepin-2(3H)-yl)methyl)-4-methylphenyl)-1-(1-ethyl-4-methyl-1H-benzo[d][1,2,3]triazol-5-yl)-2-methylpropan-2-yl)-2-(1H-tetrazol-5-yl)acetamide] | 10 to 100
13 | CC[C@@H]1CN(Cc2cc([C@@H](c3ccc4c(nnn4C)c3C)C(C)(C)C(=O)NCCNC)ccc2C)Cc2cnccc2O1 [Example 79, (S)-3-(1,4-Dimethyl-1H-benzo[d][1,2,3]triazol-5-yl)-3-(3-(((R)-2-ethyl-2,3-dihydropyrido[3,4-f][1,4]oxazepin-4(5H)-yl)methyl)-4-methylphenyl)-2,2-dimethyl-N-(2-(methylamino)ethyl)propanamide] | 100 to 1000
14 | CC[C@H]1Cc2ccccc2S(=O)(=O)N(Cc2cc([C@H](CC(=O)Nc3cccnc3)c3ccc4c(nnn4CC)c3F)ccc2C)C1 [Example 80, (S)-3-(3-(((S)-4-Ethyl-1,1-dioxido-4,5-dihydrobenzo[f][1,2]thiazepin-2(3H)-yl)methyl)-4-methylphenyl)-3-(1-ethyl-4-fluoro-1H-benzo[d][1,2,3]triazol-5-yl)-N-(pyridin-3-yl)propanamide] | 10 to 100
15 | CC[C@H]1Cc2ccccc2S(=O)(=O)N(Cc2cc([C@H](CC(=O)NCCNC)c3ccc4c(nnn4CC)c3F)ccc2C)C1 [Example 81, (S)-3-(3-(((S)-4-Ethyl-1,1-dioxido-4,5-dihydrobenzo[f][1,2]thiazepin-2(3H)-yl)methyl)-4-methylphenyl)-3-(1-ethyl-4-fluoro-1H-benzo[d][1,2,3]triazol-5-yl)-N-(2-(methylamino)ethyl)propanamide] | 10 to 100
